Experimental data published in US8071797B2 (priority 2008, dated 2011).

biological target: T1, HCV polymerase (NS5B570n-Con1) (Hepatitis C virus genotype 1b, UniProt Q9WMX2); experiment: HCV NS5B RNA polymerase activity assay; format: biochemical, HCV Con1 strain; conditions: IC50 NS5B polymerase assay, Table I
T1 construct: contains a 21 amino acid deletion at the C-terminus relative to the full-length HCV polymerase; 6-histidine (N); made in house; host or cells: E. coli BL21 (DE) pLysS
Protocol: The enzymatic activity of HCV polymerase (NS5B570n-Con1) was measured as the incorporation of radiolabeled nucleotide monophosphates into acid insoluble RNA products. Unincorporated radiolabeled substrate was removed by filtration and scintillant was added to the washed and dried filter plate containing radiolabeled RNA product. The amount of RNA product generated by NS5B570-Con1 at the end of the reaction was directly proportional to the amount of light emitted by the scintillant.
The N-terminal 6-histidine tagged HCV polymerase, derived from HCV Con1 strain, genotype 1b (NS5B570n-Con1) contains a 21 amino acid deletion at the C-terminus relative to the full-length HCV polymerase and was purified from E. coli strain BL21 (DE) pLysS. The construct, containing the coding sequence of HCV NS5B Con1 (GenBank accession number AJ242654) was inserted into the plasmid construct pETI 7b, downstream of a T7 promoter expression cassette and transformed into E. coli. A single colony was grown overnight as a starter culture and later used inoculate 10 L of LB media supplemented with 100 μg/mL ampicillin at 37° C. Protein expression was induced by the addition of 0.25 mM isopropyl-β-D-thiogalactopyranoside (IPTG) when optical density at […] of the culture was between 0.6 and 0.8 and cells were harvested after 16 to 18 h at 30° C. NS5B570n-Con1 was purified to homogeneity using a three-step protocol including subsequent column chromatography on Ni-NTA, SP-Sepharose HP and Superdex 75 resins.
Each 50 μl enzymatic reaction contained 20 nM RNA template derived from the complementary sequence of the Internal Ribosome Entry Site (cIRES), 20 nM NS5B570n-Con1 enzyme, 0.5 μCi of tritiated UTP (Perkin Elmer catalog no. TRK-412; specific activity: 30 to 60 Ci/mmol; stock solution concentration from 7.5×10^-5 M to 20.6×10^-6 M), 1 μM each ATP, CTP, and GTP, 40 mM Tris-HCl pH 8.0, 40 mM NaCl, 4 mM DTT (dithiothreitol), 4 mM MgCl2, and 5 μl of compound serial diluted in DMSO. Reaction mixtures were assembled in 96-well filter plates (cat #MADVN0B, Millipore Co.) and incubated for 2 h at 30° C. Reactions were stopped by addition of 10% final (v/v) trichloroacetic acid and incubated for 40 min at 4° C. Reactions were filtered, washed with 8 reaction volumes of 10% (v/v) trichloroacetic acetic acid, 4 reaction volumes of 70% (v/v) ethanol, air dried, and 25 μl of scintillant (Microscint 20, Perkin-Elmer) was added to each reaction well.
The amount of light emitted from the scintillant was converted to counts per minute (CPM) on a Topcount® plate reader (Perkin-Elmer, Energy Range: Low, Efficiency Mode Normal, Count Time: 1 min, Background Subtract: none, Cross talk reduction: Off).
Data was analyzed in Excel® (Microsoft®) and ActivityBase® (idbsg). The reaction in the absence of enzyme was used to determine the background signal, which was subtracted from the enzymatic reactions. Positive control reactions were performed in the absence of compound, from which the background corrected activity was set as 100% polymerase activity. All data was expressed as a percentage of the positive control. The compound concentration at which the enzyme-catalyzed rate of RNA synthesis was reduced by 50% (IC50) was calculated by fitting
[formula] equation (t) to the data.where “Y” corresponds to the relative enzyme activity (in %), “% Min” is the residual relative activity at saturating compound concentration, “% Max” is the relative maximum enzymatic activity, “X” corresponds to the compound concentration, and “S” is the Hill coefficient (or slope).

`CNC(=O)c1c(-c2ccc(Oc3ccc(F)cc3)cc2)oc2cc(N(CCNC(C)=O)S(C)(=O)=O)c(C3CC3)cc12` [Compound I-79] and `CNC(=O)c1c(-c2ccc(Oc3ccc(F)cc3)cc2)oc2cc(N(CC(N)=O)S(C)(=O)=O)c(C3CC3)cc12` [Compound I-73] are within 1.5-fold of each other in IC50: 68 nM for the first, 56 nM for the second.

Going from `CNC(=O)c1c(-c2ccc(Nc3ccc(F)c(F)c3)cc2)oc2cc(N(CCO)S(C)(=O)=O)c(OC)cc12` [Compound I-10] to `CNC(=O)c1c(-c2ccc(Nc3ccc(F)cc3F)cc2)oc2cc(N(CCO)S(C)(=O)=O)c(OC)cc12` [Compound I-14], the IC50 falls from 65 nM to 24 nM (2.7-fold). The second is the more potent here.

`CNC(=O)c1c(-c2ccc(Oc3ccc(F)cc3)cc2)oc2cc(N(CCO)S(C)(=O)=O)c(OC)cc12` [Compound I-8] and `CNC(=O)c1c(-c2ccc(Oc3ccccc3F)cc2)oc2cc(N(CCO)S(C)(=O)=O)c(OC)cc12` [Compound I-9] are within 1.5-fold of each other in IC50: 57 nM for the first, 85 nM for the second.

First: CNC(=O)c1c(-c2ccc(Oc3ccc(F)cc3)cc2)oc2cc(N(CCCN(C)S(C)(=O)=O)S(C)(=O)=O)c(C3CC3)cc12 [Compound I-117]
Second: CNC(=O)c1c(-c2ccc(Oc3ccc(F)cc3)cc2)oc2cc(N(CCCO)S(C)(=O)=O)c(C3CC3)cc12 [Compound I-106]
The IC50 of the first is 1.6-fold lower: 11 nM for the first, 18 nM for the second.

Going from `CNC(=O)c1c(-c2ccc(Nc3ccc(C(F)(F)F)cc3)cc2)oc2cc(N(CCO)S(C)(=O)=O)c(OC)cc12` [Compound I-11] to `CNC(=O)c1c(-c2ccc(Nc3ccc(F)cc3)cc2)oc2cc(N(CCO)S(C)(=O)=O)c(OC)cc12` [Compound I-2], the IC50 falls from 1950 nM to 100 nM (20-fold). The second is the more potent here.

First: CNC(=O)c1c(-c2ccc(Nc3ccc(Cl)cc3)cc2)oc2cc(N(CCO)S(C)(=O)=O)c(OC(C)C)cc12 [Compound I-30]
Second: CNC(=O)c1c(-c2ccc(Nc3ccccc3)cc2)oc2cc(N(CCO)S(C)(=O)=O)c(OC(C)C)cc12 [Compound I-28, 6-[(2-Hydroxy-ethyl)-methanesulfonyl-amino]-5-isopropoxy-2-(4-phenylamino-phenyl)-benzofuran-3-carboxylic acid methylamide]
The IC50 of the first is 19-fold higher: 815 nM for the first, 42 nM for the second. The second is the more potent here.

Compared with `CNC(=O)c1c(-c2ccc(Oc3ccc(F)cc3)cc2)oc2cc(C3CCCN3)c(OC)cc12` (stereo not shown) [Compound I-111, 2-[4-(4-Fluoro-phenoxy)-phenyl]-5-methoxy-6-pyrrolidin-2-yl-benzofuran-3-carboxylic acid methylamide], `CNC(=O)c1c(-c2ccc(Oc3ccc(F)cc3)cc2)oc2cc(C3CCCN3S(C)(=O)=O)c(OC)cc12` (stereo not shown) [Compound I-112, 2-[4-(4-Fluoro-phenoxy)-phenyl]-6-(1-methanesulfonyl-pyrrolidin-2-yl)-5-methoxy-benzofuran-3-carboxylic acid methylamide] is 2.7-fold lower in IC50: 933 nM for the first, 349 nM for the second.

First: CNC(=O)c1c(-c2ccc(Oc3ccc(F)cc3)cc2)oc2cc(N(CC[S+](C)[O-])S(C)(=O)=O)c(C3CC3)cc12 (stereo not shown) [Compound I-120, 5-Cyclopropyl-2-[4-(4-fluoro-phenoxy)-phenyl]-6-[(2-methanesulfinyl-ethyl)-methanesulfonyl-amino]-benzofuran-3-carboxylic acid methylamide]
Second: CNC(=O)c1c(-c2ccc(Oc3ccc(F)cc3)cc2)oc2cc(N(CC(O)CN)S(C)(=O)=O)c(C3CC3)cc12 (stereo not shown) [Compound I-97, 6-[(3-Amino-2-hydroxy-propyl)-methanesulfonyl-amino]-5-cyclopropyl-2-[4-(4-fluoro-phenoxy)-phenyl]-benzofuran-3-carboxylic acid methylamide]
The IC50 of the first is 2.5-fold lower: 19 nM for the first, 48 nM for the second. The first is the more potent here.

Going from `CNC(=O)c1c(-c2ccc(Oc3ccccc3F)cc2)oc2cc(N(CCO)S(C)(=O)=O)c(C3CC3)cc12` [Compound I-61] to `CCCc1cc2c(C(=O)NC)c(-c3ccc(Oc4ccccc4F)cc3)oc2cc1N(CCO)S(C)(=O)=O` [Compound I-65, 2-[4-(2-Fluoro-phenoxy)-phenyl]-6-[(2-hydroxy-ethyl)-methanesulfonyl-amino]-5-propyl-benzofuran-3-carboxylic acid methylamide], the IC50 falls from 35 nM to 21 nM (1.7-fold). The second is the more potent here.

`CCN(c1cc2oc(-c3ccc(Oc4ccccc4F)cc3)c(C(=O)NC)c2cc1OC)S(C)(=O)=O` [Compound I-23] and `CNC(=O)c1c(-c2ccc(Oc3cccc(F)c3F)cc2)oc2cc(N(CCO)S(C)(=O)=O)c(OC)cc12` [Compound I-22] are within 1.5-fold of each other in IC50: 52 nM for the first, 55 nM for the second.

First: CNC(=O)c1c(-c2ccc(Oc3ccc(F)cc3)cc2)oc2cc(N(CC3COC(=O)N3)S(C)(=O)=O)c(C3CC3)cc12 (stereo not shown) [Compound I-108]
Second: CNC(=O)c1c(-c2ccc(Oc3ccc(F)cc3)cc2)oc2cc(N(CC3COC3)S(C)(=O)=O)c(C3CC3)cc12 [Compound I-70, 5-Cyclopropyl-2-[4-(4-fluoro-phenoxy)-phenyl]-6-(methanesulfonyl-oxetan-3-ylmethyl-amino)-benzofuran-3-carboxylic acid methylamide]
The IC50 of the first is 2-fold higher: 26 nM for the first, 13 nM for the second. The second is the more potent here.

Compared with `CNC(=O)c1c(-c2ccc(Oc3ccc(F)cc3)cc2)oc2cc(N(CC(F)(F)CN)S(C)(=O)=O)c(C3CC3)cc12` [Compound I-115, 6-[(3-Amino-2,2-difluoro-propyl)-methanesulfonyl-amino]-5-cyclopropyl-2-[4-(4-fluoro-phenoxy)-phenyl]-benzofuran-3-carboxylic acid methylamide], `CNC(=O)c1c(-c2ccc(Oc3ccc(F)cc3)cc2)oc2cc(N(C3CNC3)S(C)(=O)=O)c(C3CC3)cc12` [Compound I-75] is 10-fold higher in IC50: 29 nM for the first, 300 nM for the second.

`CNC(=O)c1c(-c2ccc(Oc3ccc(F)cc3)cc2)oc2cc(N(C3CCN(S(C)(=O)=O)C3)S(C)(=O)=O)c(C3CC3)cc12` (stereo not shown) [Compound I-94, 5-cyclopropyl-2-[4-(4-fluoro-phenoxy)-phenyl]-6-[methanesulfonyl-(1-methanesulfonyl-pyrrolidin-3-yl)-amino]-benzofuran-3-carboxylic acid methylamide] and `CNC(=O)c1c(-c2ccc(Oc3ccc(F)cc3)cc2)oc2cc(C(C)(C)O)c(C3CC3)cc12` [Compound I-110, 5-Cyclopropyl-2-[4-(4-fluoro-phenoxy)-phenyl]-6-(1-hydroxy-1-methyl-ethyl)-benzofuran-3-carboxylic acid methylamide] are within 1.5-fold of each other in IC50: 28 nM for the first, 39 nM for the second.

Going from `CNC(=O)c1c(-c2ccc(Nc3ccccc3F)cc2)oc2cc(N(CCO)S(C)(=O)=O)c(OC(C)C)cc12` [Compound I-34] to `CNC(=O)c1c(-c2ccc(Nc3ccccc3F)cc2)oc2cc(N(CCO)S(C)(=O)=O)c(OC)cc12` [Compound I-5], the IC50 falls from 64 nM to 34 nM (1.9-fold).

First: CNC(=O)c1c(-c2ccc(Oc3ccc(F)cc3)cc2)oc2cc(NS(C)(=O)=O)c(OC)cc12 [Compound I-43]
Second: CNC(=O)c1c(-c2ccc(Oc3cccc(Cl)c3)cc2)oc2cc(N(CCO)S(C)(=O)=O)c(OC)cc12 [Compound I-38]
The IC50 of the first is 4.8-fold higher: 238 nM for the first, 50 nM for the second.

Going from `CNC(=O)c1c(-c2ccc(Nc3ccc(C#N)cc3)cc2)oc2cc(N(CCO)S(C)(=O)=O)c(OC)cc12` [Compound I-13] to `CNC(=O)c1c(-c2ccc(Nc3ccc(F)cc3)nc2)oc2cc(N(CCO)S(C)(=O)=O)c(OC)cc12` [Compound I-126, 2-[6-(4-Fluoro-phenylamino)-pyridin-3-yl]-6-[(2-hydroxy-ethyl)-methanesulfonyl-amino]-5-methoxy-benzofuran-3-carboxylic acid methylamide], the IC50 falls from 1840 nM to 468 nM (3.9-fold).

Going from `CNC(=O)c1c(-c2ccc(Oc3cccc(F)c3)cc2)oc2cc(N(CCO)S(C)(=O)=O)c(OC(C)C)cc12` [Compound I-26] to `CNC(=O)c1c(-c2ccc(Nc3ccc(F)cc3)cc2)oc2cc(N(CCO)S(C)(=O)=O)c(C3CC3)cc12` [Compound I-62], the IC50 falls from 82 nM to 13 nM (6.3-fold).
